The supplement of paper PMC10307832

Legend:
Assay in all cases: relative viability (nuclei count vs DMSO), 5 days (fraction); higher = more cells survive
[1] = compound: Cc1ccc2nc(NCCN)c3ncc(C)n3c2c1 + NC(=O)Nc1cc(-c2cccc(F)c2)sc1C(=O)N[C@H]1CCCNC1 [AZD7762] (partner 0.2 µM)
Method in brief: (§1)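 Medians of duplicate plates are given as relative viability. That measure is the nuclei count in treated wells divided by the count in vehicle wells. Counts were taken on 4× images of lung cancer cell lines in 1536-well plates, 5 days after pin-tool dosing the day after seeding with one drug alone or a fixed anchor-drug dose plus five library-drug doses (not always all listed) in √10 steps.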

Salubrinal + Phenformin = compound: O=C(/C=C/c1ccccc1)NC(NC(=S)Nc1cccc2cccnc12)C(Cl)(Cl)Cl [Salubrinal] + N=C(N)NC(=N)NCCc1ccccc1 [Phenformin] (partner 250 µM)
Method in brief: as §1

[2] = compound: Cc1ccc2nc(NCCN)c3ncc(C)n3c2c1 + Cc1cc(Nc2cc(N3CCN(C)CC3)nc(Sc3ccc(NC(=O)C4CC4)cc3)n2)n[nH]1 [Tozasertib] (partner 0.1 µM)
Method in brief: as §1

[3] = compound: Cc1ccc2nc(NCCN)c3ncc(C)n3c2c1 + Nc1nc2[nH]cc(CCc3ccc(C(=O)N[C@@H](CCC(=O)O)C(=O)O)cc3)c2c(=O)[nH]1 [Pemetrexed] (partner 0.2 µM)
Method in brief: as §1

Cell Line | relative viability ([1]; first compound 0.04 µM) | relative viability ([1]; first compound 0.1265 µM) | relative viability ([1]; first compound 0.4 µM) | relative viability ([1]; first compound 1.265 µM) | relative viability ([1]; first compound 4 µM) | relative viability (Salubrinal + Phenformin; first compound 0.08 µM) | relative viability (Salubrinal + Phenformin; first compound 0.253 µM) | relative viability (Salubrinal + Phenformin; first compound 0.8 µM) | relative viability (Salubrinal + Phenformin; first compound 2.53 µM) | relative viability (Salubrinal + Phenformin; first compound 8 µM) | relative viability ([2]; first compound 0.04 µM) | relative viability ([2]; first compound 0.1265 µM) | relative viability ([2]; first compound 0.4 µM) | relative viability ([2]; first compound 1.265 µM) | relative viability ([2]; first compound 4 µM) | relative viability ([3]; first compound 0.04 µM) | relative viability ([3]; first compound 0.1265 µM) | relative viability ([3]; first compound 0.4 µM) | relative viability ([3]; first compound 1.265 µM) | relative viability ([3]; first compound 4 µM)
NCI-H1651 | 0.536 | 0.511 | 0.409 | 0.46 | 0.445 | 0.311 | 0.237 | 0.345 | 0.296 | 0.267 | 0.625 | 0.71 | 0.652 | 0.677 | 0.718 | 0.578 | 0.639 | 0.647 | 0.591 | 0.502
NCI-H1666 | 0.903 | 0.961 | 0.774 | 0.756 | 0.841 | 0.535 | 0.603 | 0.561 | 0.547 | 0.514 | 0.665 | 0.676 | 0.677 | 0.502 | 0.544 | 0.965 | 0.817 | 0.84 | 0.736 | 0.795
NCI-H1734 | 0.573 | 0.596 | 0.517 | 0.559 | 0.546 | 0.416 | 0.375 | 0.412 | 0.429 | 0.366 | 0.275 | 0.258 | 0.211 | 0.237 | 0.243 | 0.438 | 0.395 | 0.413 | 0.48 | 0.496
NCI-H1755 | 0.476 | 0.45 | 0.492 | 0.435 | 0.433 | 0.639 | 0.676 | 0.652 | 0.625 | 0.552 | 0.552 | 0.565 | 0.536 | 0.511 | 0.524 | 0.446 | 0.408 | 0.411 | 0.437 | 0.456
NCI-H1793 | 0.506 | 0.411 | 0.361 | 0.39 | 0.417 | 0.446 | 0.349 | 0.391 | 0.394 | 0.33 | 0.603 | 0.375 | 0.371 | 0.32 | 0.375 | 0.951 | 0.85 | 0.846 | 0.714 | 0.766
NCI-H1915 | 0.646 | 0.702 | 0.551 | 0.728 | 0.704 | 0.39 | 0.341 | 0.389 | 0.355 | 0.365 | 0.481 | 0.492 |  | 0.432 | 0.416 | 0.511 | 0.502 | 0.463 | 0.519 | 0.442
NCI-H1944 | 0.48 | 0.64 | 0.456 | 0.351 | 0.498 | 0.198 | 0.191 | 0.214 | 0.185 | 0.178 | 0.256 | 0.248 | 0.246 | 0.241 | 0.253 | 0.687 | 0.586 | 0.582 | 0.555 | 0.587
NCI-H1975 | 0.791 | 0.73 | 0.672 | 0.66 | 0.595 | 0.465 | 0.359 | 0.434 | 0.427 | 0.375 | 0.818 | 0.866 | 0.824 | 0.639 | 0.56 | 0.309 | 0.29 | 0.3 | 0.313 | 0.324
NCI-H1993 | 0.937 | 0.875 | 0.554 | 0.727 | 0.625 | 0.464 | 0.545 | 0.506 | 0.503 | 0.509 | 0.602 | 0.593 | 0.543 | 0.566 | 0.581 | 0.595 | 0.623 | 0.528 | 0.57 | 0.613
NCI-H2085 | 1.06 | 0.996 | 0.916 | 0.952 | 1 | 0.68 | 0.634 | 0.682 | 0.749 | 0.665 | 0.801 | 0.765 | 0.881 | 0.703 | 0.802 | 0.87 | 0.934 | 0.855 | 0.892 | 1
NCI-H2087 | 1.35 | 1.25 | 1.27 | 1.28 | 1.26 | 0.472 | 0.361 | 0.527 | 0.471 | 0.476 | 0.282 | 0.222 | 0.288 | 0.204 | 0.179 | 0.725 | 0.637 | 0.599 | 0.711 | 0.575
NCI-H2126 | 1.12 | 1.01 | 0.965 | 1.14 | 0.936 | 0.512 | 0.537 | 0.562 | 0.563 | 0.519 | 0.955 | 0.857 | 0.869 | 0.852 | 0.734 | 0.851 | 0.699 | 0.659 | 0.708 | 0.59
NCI-H2170 | 0.874 | 0.897 | 0.821 | 0.761 | 0.845 | 0.468 | 0.423 | 0.241 | 0.403 | 0.373 | 0.755 | 0.625 | 0.694 | 0.671 | 0.679 | 0.258 | 0.305 | 0.26 | 0.257 | 0.262
NCI-H2342 | 0.548 | 0.655 | 0.479 | 0.452 | 0.479 | 0.497 | 0.564 | 0.618 | 0.635 | 0.572 | 0.481 | 0.583 | 0.47 | 0.599 | 0.463 | 0.871 | 0.817 | 0.751 | 0.827 | 0.713
NCI-H2347 | 0.719 | 0.733 | 0.687 | 0.794 | 0.636 | 0.321 | 0.35 | 0.399 | 0.363 | 0.43 | 0.801 | 0.58 | 0.509 | 0.519 | 0.437 | 0.447 | 0.479 | 0.454 | 0.412 | 0.424
NCI-H2405 | 0.855 | 0.682 | 0.758 | 0.671 | 0.639 | 0.42 | 0.387 | 0.441 | 0.329 | 0.408 | 0.731 | 0.723 | 0.708 | 0.639 | 0.68 | 1.17 | 1.01 | 1 | 0.905 | 0.798
